Targets include AKT1 (UniProt P31749); ABL2 (UniProt P42684); STK39 (UniProt Q9UEW8); UniProt Q05655; MAST3 (UniProt O60307); MAST1 (UniProt Q9Y2H9); NEK7 (UniProt Q8TDX7); EIF2AK4 (UniProt Q9P2K8); UniProt Q14004.
Common to all, as to assay: pIC50, kinobeads binding competition
What all share (details): cell material: Jurkat lysate

A further assay has as its target T1, ULK3 (UniProt Q6PHR2).
T1 sequence (whole entry): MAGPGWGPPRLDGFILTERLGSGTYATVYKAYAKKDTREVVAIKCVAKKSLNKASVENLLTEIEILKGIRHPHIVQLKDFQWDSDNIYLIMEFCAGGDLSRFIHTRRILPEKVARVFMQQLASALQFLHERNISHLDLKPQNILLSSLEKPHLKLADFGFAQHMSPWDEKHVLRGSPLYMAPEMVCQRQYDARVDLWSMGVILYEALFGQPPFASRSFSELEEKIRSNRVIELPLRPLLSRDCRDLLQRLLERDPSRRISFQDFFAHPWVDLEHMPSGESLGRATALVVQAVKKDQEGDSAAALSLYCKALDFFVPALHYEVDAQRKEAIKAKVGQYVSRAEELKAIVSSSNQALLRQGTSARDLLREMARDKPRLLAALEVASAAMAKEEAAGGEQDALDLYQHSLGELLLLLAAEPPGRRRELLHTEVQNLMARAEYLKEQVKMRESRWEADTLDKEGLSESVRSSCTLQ

A further assay deals with T2, UniProt P52564.
T2 sequence (whole entry): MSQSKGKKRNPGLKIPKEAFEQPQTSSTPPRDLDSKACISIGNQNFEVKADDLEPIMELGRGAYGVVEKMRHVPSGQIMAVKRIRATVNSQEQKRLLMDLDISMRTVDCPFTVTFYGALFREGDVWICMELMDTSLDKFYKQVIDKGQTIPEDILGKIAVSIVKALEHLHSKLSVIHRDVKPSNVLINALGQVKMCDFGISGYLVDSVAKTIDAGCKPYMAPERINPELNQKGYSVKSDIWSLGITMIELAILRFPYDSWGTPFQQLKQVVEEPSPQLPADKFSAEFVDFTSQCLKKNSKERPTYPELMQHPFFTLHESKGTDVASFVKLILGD

The next assay has as its target T3, UniProt O00444.
T3 sequence (whole entry): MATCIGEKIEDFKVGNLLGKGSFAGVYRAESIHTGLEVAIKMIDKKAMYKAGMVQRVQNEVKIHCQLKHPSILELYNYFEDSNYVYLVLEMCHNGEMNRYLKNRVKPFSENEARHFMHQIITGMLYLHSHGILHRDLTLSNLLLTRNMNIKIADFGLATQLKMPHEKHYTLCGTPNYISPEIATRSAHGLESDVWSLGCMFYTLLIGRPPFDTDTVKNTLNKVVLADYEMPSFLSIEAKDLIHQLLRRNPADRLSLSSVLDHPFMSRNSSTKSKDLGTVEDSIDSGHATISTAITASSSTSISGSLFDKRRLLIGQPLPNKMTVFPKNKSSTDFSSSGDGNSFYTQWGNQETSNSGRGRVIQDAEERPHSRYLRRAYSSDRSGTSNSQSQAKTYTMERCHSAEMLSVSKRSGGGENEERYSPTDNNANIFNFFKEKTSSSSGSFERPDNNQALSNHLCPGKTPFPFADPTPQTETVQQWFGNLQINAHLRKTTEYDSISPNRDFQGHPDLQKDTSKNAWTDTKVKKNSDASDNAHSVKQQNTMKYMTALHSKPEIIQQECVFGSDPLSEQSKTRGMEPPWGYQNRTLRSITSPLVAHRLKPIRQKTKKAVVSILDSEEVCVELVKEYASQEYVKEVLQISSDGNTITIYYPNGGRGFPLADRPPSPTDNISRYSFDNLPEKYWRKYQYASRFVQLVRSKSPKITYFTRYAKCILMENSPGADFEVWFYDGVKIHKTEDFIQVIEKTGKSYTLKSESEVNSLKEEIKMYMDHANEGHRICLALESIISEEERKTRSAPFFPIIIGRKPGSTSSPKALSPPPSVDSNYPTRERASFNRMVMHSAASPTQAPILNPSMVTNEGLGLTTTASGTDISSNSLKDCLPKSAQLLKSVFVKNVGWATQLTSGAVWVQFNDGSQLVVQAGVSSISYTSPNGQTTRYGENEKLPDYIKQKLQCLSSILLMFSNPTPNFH

In a further assay the target is T4, SNRK (UniProt Q9NRH2).
T4 sequence (whole entry): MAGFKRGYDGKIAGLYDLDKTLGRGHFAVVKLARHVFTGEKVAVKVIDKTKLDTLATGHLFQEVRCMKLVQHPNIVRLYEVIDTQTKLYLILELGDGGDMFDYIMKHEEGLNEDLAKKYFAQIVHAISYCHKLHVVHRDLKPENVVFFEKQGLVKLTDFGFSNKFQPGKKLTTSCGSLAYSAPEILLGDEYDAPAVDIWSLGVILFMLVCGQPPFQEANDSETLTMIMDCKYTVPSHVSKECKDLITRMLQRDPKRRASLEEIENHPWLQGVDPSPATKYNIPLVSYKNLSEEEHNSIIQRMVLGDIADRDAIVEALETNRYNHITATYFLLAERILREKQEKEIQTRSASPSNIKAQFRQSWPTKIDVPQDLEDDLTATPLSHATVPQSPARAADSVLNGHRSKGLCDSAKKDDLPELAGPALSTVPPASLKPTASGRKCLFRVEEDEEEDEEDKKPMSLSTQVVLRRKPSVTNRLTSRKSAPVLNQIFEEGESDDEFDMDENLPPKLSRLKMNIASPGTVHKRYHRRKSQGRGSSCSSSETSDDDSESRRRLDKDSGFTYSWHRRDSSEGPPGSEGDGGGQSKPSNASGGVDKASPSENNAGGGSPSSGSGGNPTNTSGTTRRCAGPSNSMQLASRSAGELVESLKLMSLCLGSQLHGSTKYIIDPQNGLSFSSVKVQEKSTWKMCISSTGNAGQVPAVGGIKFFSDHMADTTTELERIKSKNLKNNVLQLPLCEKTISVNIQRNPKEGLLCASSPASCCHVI

± gives the standard deviation of the averaged measurements. Some results are limits rather than exact numbers.

Chain of UniProt Q14004 (Q14004 whole entry, looked up): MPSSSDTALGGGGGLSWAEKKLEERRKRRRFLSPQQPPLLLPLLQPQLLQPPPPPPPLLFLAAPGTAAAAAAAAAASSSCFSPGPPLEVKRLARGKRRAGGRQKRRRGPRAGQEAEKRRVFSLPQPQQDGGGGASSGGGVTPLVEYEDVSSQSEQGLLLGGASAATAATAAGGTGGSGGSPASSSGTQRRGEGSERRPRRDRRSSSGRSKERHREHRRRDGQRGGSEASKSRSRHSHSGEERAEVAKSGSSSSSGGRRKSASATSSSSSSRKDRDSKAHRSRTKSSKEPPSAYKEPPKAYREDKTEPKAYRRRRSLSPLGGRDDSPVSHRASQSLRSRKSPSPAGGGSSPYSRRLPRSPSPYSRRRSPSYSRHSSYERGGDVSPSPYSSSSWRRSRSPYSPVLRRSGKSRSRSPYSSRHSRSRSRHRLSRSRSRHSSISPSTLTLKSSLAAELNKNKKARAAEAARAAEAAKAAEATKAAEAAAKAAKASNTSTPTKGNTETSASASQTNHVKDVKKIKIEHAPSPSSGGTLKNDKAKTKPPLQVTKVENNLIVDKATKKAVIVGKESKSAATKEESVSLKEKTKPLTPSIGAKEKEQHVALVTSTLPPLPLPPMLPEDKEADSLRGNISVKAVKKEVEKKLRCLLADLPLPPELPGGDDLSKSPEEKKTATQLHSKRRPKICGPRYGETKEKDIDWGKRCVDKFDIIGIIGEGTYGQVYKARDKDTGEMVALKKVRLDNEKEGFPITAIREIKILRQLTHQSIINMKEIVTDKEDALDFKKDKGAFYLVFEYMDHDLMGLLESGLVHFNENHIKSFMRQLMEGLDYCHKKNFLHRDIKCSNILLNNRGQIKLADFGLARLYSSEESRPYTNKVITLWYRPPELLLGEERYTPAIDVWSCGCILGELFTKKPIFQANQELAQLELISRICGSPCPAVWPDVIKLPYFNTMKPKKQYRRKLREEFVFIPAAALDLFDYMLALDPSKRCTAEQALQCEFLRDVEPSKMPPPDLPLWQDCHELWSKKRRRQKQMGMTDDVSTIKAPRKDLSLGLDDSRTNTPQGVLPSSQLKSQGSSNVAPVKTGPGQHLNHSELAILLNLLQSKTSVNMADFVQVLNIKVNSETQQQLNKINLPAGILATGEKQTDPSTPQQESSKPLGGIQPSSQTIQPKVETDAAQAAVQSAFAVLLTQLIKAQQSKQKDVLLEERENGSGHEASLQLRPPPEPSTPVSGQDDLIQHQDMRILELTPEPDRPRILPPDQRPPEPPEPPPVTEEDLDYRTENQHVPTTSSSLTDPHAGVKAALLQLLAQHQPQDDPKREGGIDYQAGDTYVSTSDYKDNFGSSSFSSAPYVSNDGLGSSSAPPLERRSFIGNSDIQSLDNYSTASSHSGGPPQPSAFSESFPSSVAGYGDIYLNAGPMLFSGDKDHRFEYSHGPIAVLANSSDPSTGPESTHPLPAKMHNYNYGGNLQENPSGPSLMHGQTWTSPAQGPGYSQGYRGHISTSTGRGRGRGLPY
Chain of UniProt Q05655 (Q05655 whole entry, looked up): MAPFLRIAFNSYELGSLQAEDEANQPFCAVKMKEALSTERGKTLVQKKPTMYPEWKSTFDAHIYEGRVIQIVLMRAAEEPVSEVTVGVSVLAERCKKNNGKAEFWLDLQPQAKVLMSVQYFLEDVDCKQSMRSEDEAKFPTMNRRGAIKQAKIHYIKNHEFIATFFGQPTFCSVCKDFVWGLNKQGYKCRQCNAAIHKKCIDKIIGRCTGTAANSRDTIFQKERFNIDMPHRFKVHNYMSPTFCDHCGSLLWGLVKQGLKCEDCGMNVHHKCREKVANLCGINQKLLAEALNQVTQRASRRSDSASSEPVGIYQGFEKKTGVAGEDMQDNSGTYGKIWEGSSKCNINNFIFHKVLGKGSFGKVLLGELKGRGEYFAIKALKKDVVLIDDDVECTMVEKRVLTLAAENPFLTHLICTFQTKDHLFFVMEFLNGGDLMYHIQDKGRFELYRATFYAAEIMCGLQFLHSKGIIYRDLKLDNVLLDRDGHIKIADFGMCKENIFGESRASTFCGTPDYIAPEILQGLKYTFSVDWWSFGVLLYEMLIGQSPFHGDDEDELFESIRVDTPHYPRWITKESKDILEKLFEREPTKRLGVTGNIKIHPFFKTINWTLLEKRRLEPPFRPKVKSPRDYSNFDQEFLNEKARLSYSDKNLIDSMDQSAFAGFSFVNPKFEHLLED
Chain of AKT1 (P31749 whole entry): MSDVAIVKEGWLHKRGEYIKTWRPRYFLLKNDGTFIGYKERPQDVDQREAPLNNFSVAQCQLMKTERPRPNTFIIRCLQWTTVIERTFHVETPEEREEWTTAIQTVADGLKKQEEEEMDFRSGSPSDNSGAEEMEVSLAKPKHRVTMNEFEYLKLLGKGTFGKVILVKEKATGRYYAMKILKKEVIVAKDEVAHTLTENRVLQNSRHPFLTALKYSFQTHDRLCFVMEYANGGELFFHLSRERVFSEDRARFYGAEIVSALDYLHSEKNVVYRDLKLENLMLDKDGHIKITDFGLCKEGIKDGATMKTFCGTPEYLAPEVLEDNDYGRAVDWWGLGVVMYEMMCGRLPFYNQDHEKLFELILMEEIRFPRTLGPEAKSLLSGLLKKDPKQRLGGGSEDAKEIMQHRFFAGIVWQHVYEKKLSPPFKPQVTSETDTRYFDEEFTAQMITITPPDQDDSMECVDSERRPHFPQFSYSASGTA
Chain of EIF2AK4 (Q9P2K8 whole entry): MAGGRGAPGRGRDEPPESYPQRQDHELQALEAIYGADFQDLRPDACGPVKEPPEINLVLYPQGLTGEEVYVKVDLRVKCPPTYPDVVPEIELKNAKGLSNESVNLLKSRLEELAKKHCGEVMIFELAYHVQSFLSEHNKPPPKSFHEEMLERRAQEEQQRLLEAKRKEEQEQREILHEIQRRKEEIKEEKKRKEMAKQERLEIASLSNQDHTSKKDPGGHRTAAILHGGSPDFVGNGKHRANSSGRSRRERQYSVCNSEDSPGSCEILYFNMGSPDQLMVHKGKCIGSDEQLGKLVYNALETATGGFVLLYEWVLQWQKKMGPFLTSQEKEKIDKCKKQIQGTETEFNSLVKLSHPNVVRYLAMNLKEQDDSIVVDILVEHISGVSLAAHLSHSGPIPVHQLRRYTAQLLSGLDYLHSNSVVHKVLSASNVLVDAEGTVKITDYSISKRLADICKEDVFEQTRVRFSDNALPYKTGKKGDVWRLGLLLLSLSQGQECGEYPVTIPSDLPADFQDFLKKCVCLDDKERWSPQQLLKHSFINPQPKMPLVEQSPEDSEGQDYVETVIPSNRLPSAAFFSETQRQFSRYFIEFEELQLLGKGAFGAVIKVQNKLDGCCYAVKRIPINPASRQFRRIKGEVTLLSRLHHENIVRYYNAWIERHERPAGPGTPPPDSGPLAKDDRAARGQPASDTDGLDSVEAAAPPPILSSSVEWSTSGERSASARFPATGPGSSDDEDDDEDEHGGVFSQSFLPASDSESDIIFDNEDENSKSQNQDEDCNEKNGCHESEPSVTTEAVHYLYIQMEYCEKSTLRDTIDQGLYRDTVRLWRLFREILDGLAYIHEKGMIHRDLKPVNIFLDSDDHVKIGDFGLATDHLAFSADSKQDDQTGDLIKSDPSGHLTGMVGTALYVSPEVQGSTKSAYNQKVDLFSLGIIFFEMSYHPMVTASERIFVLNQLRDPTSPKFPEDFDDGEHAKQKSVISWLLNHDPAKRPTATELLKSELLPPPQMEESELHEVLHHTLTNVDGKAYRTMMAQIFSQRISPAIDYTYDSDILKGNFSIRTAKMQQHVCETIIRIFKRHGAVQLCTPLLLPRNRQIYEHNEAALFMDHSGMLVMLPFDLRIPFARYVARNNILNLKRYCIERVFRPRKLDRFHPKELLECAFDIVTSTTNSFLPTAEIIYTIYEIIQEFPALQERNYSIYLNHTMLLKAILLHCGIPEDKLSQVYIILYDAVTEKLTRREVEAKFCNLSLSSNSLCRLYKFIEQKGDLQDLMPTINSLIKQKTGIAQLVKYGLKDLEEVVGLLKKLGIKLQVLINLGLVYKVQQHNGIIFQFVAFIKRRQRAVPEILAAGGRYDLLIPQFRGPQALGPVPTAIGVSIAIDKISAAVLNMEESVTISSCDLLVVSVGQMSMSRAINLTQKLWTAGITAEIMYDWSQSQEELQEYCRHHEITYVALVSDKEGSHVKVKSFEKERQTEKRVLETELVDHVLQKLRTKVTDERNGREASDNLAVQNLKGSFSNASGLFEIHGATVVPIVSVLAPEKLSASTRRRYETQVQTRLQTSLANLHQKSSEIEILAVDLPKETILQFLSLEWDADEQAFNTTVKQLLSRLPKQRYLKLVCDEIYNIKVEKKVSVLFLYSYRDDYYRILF
Chain of NEK7 (Q8TDX7 whole entry, looked up): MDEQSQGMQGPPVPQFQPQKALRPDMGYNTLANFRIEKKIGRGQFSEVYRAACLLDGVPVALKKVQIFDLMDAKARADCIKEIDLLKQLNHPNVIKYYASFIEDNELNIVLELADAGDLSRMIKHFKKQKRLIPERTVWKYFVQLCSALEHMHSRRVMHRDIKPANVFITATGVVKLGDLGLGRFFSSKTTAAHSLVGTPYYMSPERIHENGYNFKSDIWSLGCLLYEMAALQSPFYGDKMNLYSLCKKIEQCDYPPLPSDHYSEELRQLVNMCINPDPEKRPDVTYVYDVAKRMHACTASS

The pIC50 is −log10 of the IC50, conventionally taken in molar units. In the case of `CCc1cnn2c(NCc3ccc[n+]([O-])c3)cc(N3CCCC[C@H]3CCO)nc12` [dinaciclib], the pIC50 was less than 4.52 on AKT1; less than 4.52 at ULK3; less than 4.52 at UniProt P52564; less than 4.52 on UniProt O00444; less than 4.52 at ABL2; 5.015 ± 0.021 on STK39. In addition, the negative-log IC50 (pIC50) at UniProt Q05655, on MAST3, on MAST1, on SNRK, on NEK7 and on EIF2AK4 was less than 4.52 throughout. Further, the pIC50 on UniProt Q14004 amounted to 7.42 ± 0.28.

(Values after the supplement of paper PMC12076712.)
